Ends that are not written are not given here.

Experiment [1] has as its system E. coli (ATCC 8739). The experiment in a line: microbe, parasite or virus in culture. Format: cell-based, Escherichia coli. The note with it: for MIC against E. coli ATCC 8739: ATCC 8739, 18 h; for MBC against E. coli ATCC 8739: ATCC 8739, 24 h. As for the experimental part:
(§1) The minimum inhibitory concentrations (MICs) of the AMPs were determined using the microbroth dilution technique ([van Harten et al., 2021]). One hundred microliters of bacterial suspension at a concentration of 1×10^6 CFU/mL was pipetted into a 96-well plate. Then, 100 μL of AMP or gentamicin at various concentrations was added, while the bacterial suspension without AMPs and blank medium were used as controls.

The test system of experiment [2] is E. coli clinical isolate E12. Briefly: microbe, parasite or virus in culture. Format: cell-based, Escherichia coli. The note with it: for MIC against E. coli E12: clinical isolate E12, 18 h; for MBC against E. coli E12: clinical isolate E12, 24 h. The method, then:
as §1

Experiment [3] relates to E. coli clinical isolate E14. Briefly: microbe, parasite or virus in culture. Format: cell-based, Escherichia coli. The note with it: for MIC against E. coli E14: clinical isolate E14, 18 h; for MBC against E. coli E14: clinical isolate E14, 24 h. As for the experimental part:
as §1

Experiment [4] has as its system E. coli clinical isolate E16. Briefly: microbe, parasite or virus in culture. Format: cell-based, Escherichia coli. The note with it: for MIC against E. coli E16: clinical isolate E16, 18 h; for MBC against E. coli E16: clinical isolate E16, 24 h. The method, then: as §1
The test system of experiment [5] is E. coli clinical isolate E18. Briefly: microbe, parasite or virus in culture. The class given is cell-based, Escherichia coli. The note with it: for MIC against E. coli E18: clinical isolate E18, 18 h; for MBC against E. coli E18: clinical isolate E18, 24 h. As for the experimental part:
as §1

The test system of experiment [6] is E. coli clinical isolate E9. The experiment in a line: microbe, parasite or virus in culture. Format: cell-based, Escherichia coli. The note with it: for MIC against E. coli E9: clinical isolate E9, 18 h; for MBC against E. coli E9: clinical isolate E9, 24 h. The method, then:
as §1

Experiment [7] relates to E. coli clinical isolate E1. Briefly: microbe, parasite or virus in culture. The note with it: for MBC against E. coli E1: 50 μL from fully inhibited wells plated on LB agar, colonies counted after 24h 37°C; for MIC against E. coli E1: microbroth dilution, 1×10^6 CFU/mL, 37°C 18h, turbidity. The method, then: as §1
The subject of experiment [8] is E. coli strains (ATCC 8739 and MDR clinical isolates). Format: cell-based, Escherichia coli. The note with it: ATCC 8739, 18 h. The method, then:
as §1

In experiment [9] the test system is E. coli (ATCC 8739). Format: cell-based, Escherichia coli. The note with it: ATCC 8739, 1 h. The method, then: The MICs of the AMPs against E. coli (ATCC 8739) at different temperatures and physiological salt concentrations were evaluated. The thermal stability of the AMPs was assessed by incubating them at a concentration of 500 μg/mL for 1h at 0, 37, and 100°C, using untreated AMPs as a control. The salt ion stability of the AMPs was determined by incubating them at a concentration of 500 μg/mL in solutions of NaCl (150 mM), KCl (4.5 mM), MgCl2 (1 mM), and CaCl2 (2.5 mM) for 1h, using untreated samples as controls. The changes in the MICs of the AMPs were assessed following these experimental procedures.

For experiment [10], the system named is E. coli (ATCC 8739). Briefly: Drug-sensitivity test (paper disc, inhibition zone). Format: cell-based, Escherichia coli. Also noted: key: R: resistant strains; I: intermediate strains; S: sensitive strains. The note with it: 6 mm antibiotic paper on LB agar, 1×10^6 CFU/mL, 24h 37°C, inhibition zone diameter. As for the experimental part:
(§2) E. coli (ATCC 8739) and clinical isolates of E. coli (E1, E9, E12, E14, E16, and E18) were stored at the Animal Biochemical Laboratory of Shanxi Agricultural University and grown in Luria-Bertani (LB) broth as previously reported ([Zhao et al., 2021]). Circular 6 mm paper pieces were prepared with filter paper and autoclaved for sterilization. […] Then, 0.5 mL of antibiotic solution was added to 100 sterilized papers. Subsequently, the paper pieces were fully infiltrated and dried in a vacuum drying oven to produce antibiotic susceptibility papers. The E. coli strain was retrieved from the -20°C freezer and activated by incubating it on LB agar media at 37°C for 24h. Individual colonies were selected and transferred to LB liquid media. Thereafter, the E. coli suspension was obtained by shaking at 37°C and 160 r/min for 18h. The obtained suspension was centrifuged at 5000 r/min for 5min, after which the supernatant was discarded, and the bacteria were resuspended in fresh medium to a concentration of 1×10^6 CFU/mL. Two hundred microliters of the bacterial suspension mentioned above was spread evenly onto LB agar medium. Then, the antibiotic susceptibility papers were placed on the medium surface using sterile tweezers. After 24h of incubation at 37°C, the diameter of the inhibition zone was measured to determine the susceptibility of E. coli to antibiotics.

For experiment [11], the system named is E. coli clinical isolate E18. The experiment is described as above. The arrangement: key: R: resistant strains; I: intermediate strains; S: sensitive strains. The note with it: 6 mm antibiotic paper on LB agar, 1×10^6 CFU/mL, 24h 37°C, inhibition zone diameter. Format: cell-based, Escherichia coli. The method, then:
as §2

Experiment [12] deals with E. coli clinical isolate E9. The experiment is described as above. The arrangement: key: R: resistant strains; I: intermediate strains; S: sensitive strains. Format: cell-based, Escherichia coli. The note with it: 6 mm antibiotic paper on LB agar, 1×10^6 CFU/mL, 24h 37°C, inhibition zone diameter. As for the experimental part: as §2
Experiment [13] concerns E. coli clinical isolate E1. Format: cell-based. The note with it: 6 mm antibiotic paper on LB agar, 1×10^6 CFU/mL, 24h 37°C, inhibition zone diameter. The arrangement: key: R: resistant strains; I: intermediate strains; S: sensitive strains. As for the experimental part: as §2
For experiment [14], the system named is E. coli clinical isolate E12. Briefly: Drug-sensitivity test (paper disc, inhibition zone). The note with it: 6 mm antibiotic paper on LB agar, 1×10^6 CFU/mL, 24h 37°C, inhibition zone diameter. Also noted: key to Drug sensitivity of E. coli E12: R: resistant strains; I: intermediate strains; S: sensitive strains. Format: cell-based, Escherichia coli. The method, then:
as §2

The test system of experiment [15] is E. coli clinical isolate E14. The experiment is described as above. Format: cell-based, Escherichia coli. Also noted: key to Drug sensitivity of E. coli E14: R: resistant strains; I: intermediate strains; S: sensitive strains. The note with it: 6 mm antibiotic paper on LB agar, 1×10^6 CFU/mL, 24h 37°C, inhibition zone diameter. The method, then: as §2
For experiment [16], the system named is E. coli clinical isolate E16. The experiment is described as above. Format: cell-based, Escherichia coli. The arrangement: key to Drug sensitivity of E. coli E16: R: resistant strains; I: intermediate strains; S: sensitive strains. The note with it: 6 mm antibiotic paper on LB agar, 1×10^6 CFU/mL, 24h 37°C, inhibition zone diameter. The method, then: as §2
For experiment [17], the system named is 6 E. coli strains (E1, E9, E12, E14, E16, E18). Format: cell-based, Escherichia coli. The note with it: paper disc test. As for the experimental part:
as §2

For the compound RFGRFLRKIRRFIPK [C2-1], in the experiment on E. coli (ATCC 8739) [1], the “MIC against E. coli ATCC 8739” value is 2 mg/L and the “MBC against E. coli ATCC 8739” value came to 4 mg/L. For the same compound, in experiment [2], the “MIC against E. coli E12” value worked out at 1 mg/L and the “MBC against E. coli E12” value is 1 mg/L. For the same compound, in experiment [3], the “MIC against E. coli E14” value was determined as 16 mg/L and the “MBC against E. coli E14” value amounted to 16 mg/L. For the same compound, in experiment [4], the “MIC against E. coli E16” value stood at 16 mg/L and the “MBC against E. coli E16” value worked out at 64 mg/L. In experiment [5], the “MIC against E. coli E18” value is 2 mg/L and the “MBC against E. coli E18” value worked out at 4 mg/L. Moreover, in experiment [6], the “MIC against E. coli E9” value was 0.5 mg/L and the “MBC against E. coli E9” value turned out to be 1 mg/L. Further, in experiment [7], the “MBC against E. coli E1” value stood at 16 mg/L and the “MIC against E. coli E1” value was 16 mg/L. For the same compound, the “MIC range over E. coli strains” value in [8] was 0.5 to 16 mg/L. Also, in the experiment with E. coli (ATCC 8739) [9], the “MIC against E. coli (ATCC 8739), Salt Stability CaCl2 (2.5 mM)” value was 8 mg/L; the “MIC against E. coli (ATCC 8739), Salt Stability KCl (4.5 mM)” value is 2 mg/L; the “MIC against E. coli (ATCC 8739), Salt Stability MgCl2 (1 mM)” value is 2 mg/L; the “MIC against E. coli (ATCC 8739), Salt Stability NaCl (150 mM)” value is 0.5 mg/L. Further, in the experiment on E. coli (ATCC 8739) [9], the “MIC against E. coli (ATCC 8739), Thermal Stability 0°C” value was 2 mg/L; the “MIC against E. coli (ATCC 8739), Thermal Stability 37°C” value is 2 mg/L; the “MIC against E. coli (ATCC 8739), Thermal Stability 100°C” value was 2 mg/L.
`CS(=O)(=O)c1ccc([C@@H](O)[C@@H](CF)NC(=O)C(Cl)Cl)cc1` [florfenicol]: the “Drug sensitivity of E. coli ATCC 8739” value with E. coli (ATCC 8739) [10] is recorded as “S”. In addition, the “Drug sensitivity of E. coli E18” value in experiment [11] is on record as “R”. Further, in experiment [12], the “Drug sensitivity of E. coli E9” value is “R”. Besides, the “Drug sensitivity of E. coli E1” value in experiment [13] was “R”. Moreover, the “Drug sensitivity of E. coli E12” value in [14] was “R”. The “Drug sensitivity of E. coli E14” value in experiment [15] was “R”. The “Drug sensitivity of E. coli E16” value in experiment [16] was “R”. For the same compound, the “Resistance of the 6 clinical E. coli strains (in words)” value in experiment [17] is listed as “resistant”.
penicillin: the “Drug sensitivity of E. coli ATCC 8739” value in the experiment with E. coli (ATCC 8739) [10] is “S”. In [11], the “Drug sensitivity of E. coli E18” value is on record as “R”. Further, the “Drug sensitivity of E. coli E9” value in [12] is recorded as “R”. In [13], the “Drug sensitivity of E. coli E1” value is “R”. Moreover, in experiment [14], the “Drug sensitivity of E. coli E12” value is reported as “R”. The “Drug sensitivity of E. coli E14” value in experiment [15] was “R”. In [16], the “Drug sensitivity of E. coli E16” value is “R”. The “Resistance of the 6 clinical E. coli strains (in words)” value in [17] is given as “resistant”.
Take RFGRFLRKIRRMRLK [C2-2]: in the experiment with E. coli (ATCC 8739) [1], the “MIC against E. coli ATCC 8739” value came out at 8 mg/L and the “MBC against E. coli ATCC 8739” value stood at 8 mg/L. In addition, in experiment [2], the “MIC against E. coli E12” value was 2 mg/L and the “MBC against E. coli E12” value was found to be 2 mg/L. Further, in experiment [3], the “MIC against E. coli E14” value amounted to 8 mg/L and the “MBC against E. coli E14” value was 8 mg/L. In addition, in experiment [4], the “MIC against E. coli E16” value was found to be 8 mg/L and the “MBC against E. coli E16” value was 8 mg/L. Moreover, in experiment [5], the “MIC against E. coli E18” value was determined as 4 mg/L and the “MBC against E. coli E18” value is 4 mg/L. Moreover, in [6], the “MIC against E. coli E9” value was determined as 2 mg/L and the “MBC against E. coli E9” value is 2 mg/L. In experiment [7], the “MBC against E. coli E1” value is 8 mg/L and the “MIC against E. coli E1” value stood at 4 mg/L. Further, in experiment [8], the “MBC range over E. coli strains” value lay within 2 to 8 mg/L and the “MIC range over E. coli strains” value lay in the range of 2 to 8 mg/L. Besides, in the experiment on E. coli (ATCC 8739) [9], the “MIC against E. coli (ATCC 8739), Salt Stability CaCl2 (2.5 mM)” value was 4 mg/L; the “MIC against E. coli (ATCC 8739), Salt Stability KCl (4.5 mM)” value amounted to 0.5 mg/L; the “MIC against E. coli (ATCC 8739), Salt Stability MgCl2 (1 mM)” value worked out at 0.5 mg/L; the “MIC against E. coli (ATCC 8739), Salt Stability NaCl (150 mM)” value is 0.5 mg/L. Also, in the experiment with E. coli (ATCC 8739) [9], the “MIC against E. coli (ATCC 8739), Thermal Stability 0°C” value came to 8 mg/L; the “MIC against E. coli (ATCC 8739), Thermal Stability 37°C” value is 8 mg/L; the “MIC against E. coli (ATCC 8739), Thermal Stability 100°C” value came out at 8 mg/L.

Source of the values: article PMC11133627, “CATH-2-derived antimicrobial peptide inhibits multidrug-resistant Escherichia coli infection in chickens” (Frontiers in Cellular and Infection Microbiology, 2024).
